Measured values: patent US20240285572A1 (priority 2023, published 2024)

Assays:
[1] = system: human patients having central serous chorioretinopathy (CSCR); test: Central macular thickness by OCT in CSCR patients given isosorbide dinitrate; assay type: in vivo
Method: The nitric-oxide releasing agent isosorbide dinitrate was given orally at 5 mg twice per day dosage for sublingual administration for 7 days for 7 human patients (CL, WZ, XC, LL, BZ, XZ, and LS) having central serous chorioretinopathy (CSCR). Average age of the patients is 41.6 years. 5 men and 2 women were enrolled in this study.

retinal blood flow = conditions: oral; glaucoma patients and diabetics; Zurakowski 1998, Weigert 2008; cited from earlier work
[2] = system: acute central retinal artery occlusion; conditions: sublingual route; cited from earlier work

SMILES	Central macular OCT thickness, overall change ([1]; 7 human CSCR patients, 5 mg twice per day sublingual for 7 days, 7-10 days after treatment)	Subretinal fluid status after treatment ([1]; patient, eye OD)	Retinal blood flow (retinal blood flow)	Treatment outcome in acute central retinal artery occlusion [2]
O=[N+]([O-])O[C@H]1CO[C@H]2[C@@H]1OC[C@H]2O[N+](=O)[O-] [isosorbide dinitrate, 1,4:3,6-dianhydro-2,5-di-O-nitro-D-glucitol]	generalized decrease	fluid resolved)	–	–
O=[N+]([O-])OCC(CO[N+](=O)[O-])O[N+](=O)[O-] [nitroglycerin, 1,2,3-Tris(nitrooxy)propane]	–	–	retinal blood flow improves	variable success
